Assay results reported in patent US4876242A, “Human insulin-like growth factor analoges with reduced binding to serum carrier proteins and their production in yeast” (Merck & Co., Inc., priority 1987, dated 1989).
Entries after “also recorded” stand apart in the source; their conditions may differ.

How the values were obtained:
type I IGF receptor = assay: Inhibition of 125I-hIGF-I binding to human placental membranes (type I IGF receptor binding); conditions: FIG. 6; for IC50: human placental membranes, type I IGF receptor
[1] = tested on: human serum carrier proteins; assay: Inhibition of 125I-hIGF-I binding to acid stable human serum carrier proteins; conditions: FIG. 7; for IC50: acid stable human carrier proteins
3T3 cells = assay: Stimulation of DNA synthesis in 3T3 cells; type: cell-based, mouse; conditions: FIG. 9; for potency in stimulating DNA synthesis relative to normal/wild-type IGF-I: 3T3 cells; for potency in stimulating DNA synthesis relative to wild type IGF-I: mouse 3T3 cells
Excerpt: IGF-I stimulates DNA synthesis in mouse 3T3 cells.

rat adipose tissue = assay: Incorporation of 14C-glucose into lipid in rat adipose tissue in vivo; conditions: FIG. 10 part B
[2] = tested on: native binding protein in rat serum; assay: Binding of 125I-labelled peptide to components in normal rat serum (gel chromatography); conditions: for binding to rat serum carrier proteins / native binding protein in rat serum (in words): normal rat serum, FIG. 8
Description: ^125 I-labelled analog IGF132 was monitored for the ability to bind components in normal rat serum. When ^125 I-IGF or ^125 I-IGF132 is chromatographed without prior incubation with serum, the radioactivity is eluted in a broad peak which migrates at the position expected for a 7.5 kD peptide (FIG. 8A). After incubation of ^125 I-IGF with rat serum, a radioactive peak appears which elutes at the position expected for a 150 kD protein, and the amount of radioactivity in the free ^125 I-αIGF peak decreases (FIG. 8B). The ^125 I-αIGF bound to the 150 kD species represents 36%±5% of the total ^125 I-IGF-I in the incubation. When the incubation is performed in the presence of 1 μg unlabelled IGF, only one radioactive peak is observed and this corresponds to unbound ^125 I-IGF (FIG. 8B (0)). Thus, under the conditions of this assay, the binding of ^125 I-IGF to the 150 kD species from rat serum is saturable.

serum carrier proteins = conditions: cited from earlier work

| Substance | IC50 (type I IGF receptor) | binding to human serum carrier proteins (in words) [1] | IC50 [1] | potency in stimulating DNA synthesis relative to normal/wild-type IGF-I (3T3 cells) | potency in stimulating DNA synthesis relative to wild type IGF-I (3T3 cells) | stimulation of lipid synthesis in adipose tissue in vivo (in words) (rat adipose tissue) | 125I-peptide bound to the 150 kD species, share of the total in the incubation ([2]; after incubation with rat serum, FIG. 8B) | binding to rat serum carrier proteins / native binding protein in rat serum (in words) [2] | binding to rat serum carrier proteins / native binding protein in rat serum (in words) ([2]; listed as IGF) | share bound to serum carrier proteins in normal human blood (serum carrier proteins; normal human blood) | binding to serum carrier proteins (in words, background observation) (serum carrier proteins) | affinity/potency at the type I IGF receptor compared to normal human IGF-I (in words) (type I IGF receptor) |
| --- | --- | --- | --- | --- | --- | --- | --- | --- | --- | --- | --- | --- |
| GPQALCGAELVDALYL-R1 [IGF252] | 5 nM | very weakly bound | 300 nM | 10 times | about 10 fold | Neither IGF-I nor IGF252 stimulate lipid synthesis; also recorded: neither IGF-I nor IGF252 stimulates the incorporation |  |  |  |  |  |  |
| GPETLCGAELVDALQF-R1 [hIGF-I, reference compound] | 5.6 nM | tightly bound | 0.42 nM |  |  | Neither IGF-I nor IGF252 stimulate lipid synthesis; also recorded: neither IGF-I nor IGF252 stimulates the incorporation | 36%±5% | binds in a saturable fashion | saturable | greater than 99% |  |  |
| GPETLCGAELVDALYL-R1 [IGF122] | 4.5 nM |  | 2.1 nM |  |  |  |  |  |  |  |  |  |
| insulin: insulin; stated not to bind to serum carrier proteins |  |  |  |  |  |  |  |  |  |  | does not bind to serum carrier proteins |  |
| GPQALCGAELVDALQF-R1 [IGF130] | 5.3 nM |  | 1.8 nM |  |  |  |  |  |  |  |  |  |
| FVNQHLCGSHLVEALYL-R1 [IGF132] | 12 nM | greatly reduced binding; also recorded: very weakly bound | > 1000 nM | 10 times | about 10 fold |  |  | greatly reduced binding; also recorded: is not observed; also recorded: only free radioactive peptide is eluted |  |  |  | near equal affinity |
